Experimental data: patent publication US20250041272A1, “COMPOSITIONS AND METHODS FOR TREATING CANCER VIA PTP1B INHIBITION” (priority 2021, published 2025)

Columns and labels:
[1] = biological target: T1, ternary complex of PTP1b with Mer and Stat1 (Mus musculus, UniProt P35821); assay: Co-immunoprecipitation of PTP1b or Stat1 from macrophages co-cultured with B16F10 cells; format: cell-based
T1 construct: endogenous in cells; host or cells: Primary peritoneal macrophages from C57BL/6J mice, stimulated with IFNγ and LPS and co-cultured with B16F10 melanoma cells
T1 sequence (P35821 1-432): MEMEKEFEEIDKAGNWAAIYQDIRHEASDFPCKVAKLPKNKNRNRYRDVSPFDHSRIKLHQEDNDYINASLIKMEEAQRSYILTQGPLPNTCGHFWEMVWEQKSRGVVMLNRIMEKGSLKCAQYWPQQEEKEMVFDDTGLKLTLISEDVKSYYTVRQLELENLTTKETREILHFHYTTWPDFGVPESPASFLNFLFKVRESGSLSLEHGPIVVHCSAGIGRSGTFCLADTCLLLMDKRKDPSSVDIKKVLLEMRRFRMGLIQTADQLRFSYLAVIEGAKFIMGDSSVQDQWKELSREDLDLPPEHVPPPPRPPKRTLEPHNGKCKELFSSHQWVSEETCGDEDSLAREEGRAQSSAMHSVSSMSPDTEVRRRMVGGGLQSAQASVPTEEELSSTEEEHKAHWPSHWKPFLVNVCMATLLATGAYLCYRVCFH
Protocol: Coimmunoprecipitation and Western blot. Coimmunoprecipitation was performed using […] A/G agarose beads (Santa Cruz Biotechnology Inc.) and antibodies for PTP1b (Abcam) or STAT1 (Cell signaling). Samples were incubated for 3 days at 4° C. under rotation and washed three times with RIPA buffer before loading them in 10% Mini-PROTEAN TGX stain-free gels (Biorad). After running the electrophoresis in the Mini-PROTEAN Tetra System (Bio-Rad) proteins were transferred to a 0.2-μm nitrocellulose Trans-Blot Mini Turbo Transfer Pack (Bio-Rad) using a Trans-Blot Turbo Transfer System (Bio-Rad). Membranes were blocked with 5% BSA (Fisher scientific) for 1 hour and blotted with antibodies against MyD88 (Cell Signaling), total STAT1 (Cell Signaling), tyrosine 701 phosphorylated STAT1 (Cell signaling), serine 727 phosphorylated STAT1 (Cell signaling), PTP1 b (Abcam) and Mer (Thermo Fisher scientific). Detection was performed with the ECL HPR-linked anti-rabbit antibody (Cell signaling) and the Clarity-Max Western ECL substrate (Bio-Rad). Blots were imaging with ChemiDoc MP Imaging System (Bio-Rad) and quantitated using ImageJ software (NIH).

[2] = system: macrophage pro-inflammatory gene expression; assay: DAMP characterization assay: nutrient deprived tumor cell conditioned medium on macrophages; format: cell-based, mouse; conditions: BVT948 5 μM, 24 hours
Protocol: DAMP characterization assay. B16F10 or GEMM6 cells were resuspended in DMEM deficient media with 1% penicillin-streptomycin (Gibco) and incubated for 3 days. Conditioned media was collected, filtered with a 0.2 μm filter and incubated with 0.35 U/ml proteinase K-agarose beads (Sigma Millipore) or 40 U/ml of benzonase endonuclease (Sigma Millipore) for 4 hours at 37° C. under rotation. Conditioned media was two-fold diluted with DMEM/F12 with 10% FBS, 1% penicillin-streptomycin (Gibco) and 20 ng/ml of M-CSF (Prospec), supplemented with 5 μM BVT948 (Sigma Millipore) and added to primary mural macrophages for 24 hours.
qRT-PCR. RNA was isolated using the RNeasy Plus Mini Kit (Quiagen) and cDNA was prepared using the Reverse Transcription System (Promega) with one-hour reverse transcription process. qRT-PCR was done using the PowerUp™ SYBR™ Green Master Mix (Applied Biosystems) on a QuantStudio Pro Real-time PCR system (Applied Biosystems) with a 95° C. pretreatment of 10 min, 50 cycles of 95° C., 10 sec and 60° C., 1 min and melt curve at the end. Analysis was performed with the 2^−ΔΔCT method(136).

[3] = system: B16F10 tumors; assay: Subcutaneous B16F10 melanoma tumor model; format: in vivo, mouse
Protocol: (§1) Tumor implantation, treatment and harvest. For animal studies, 1*10^5 B16F10 luciferase-tagged melanoma cells, 1*10^6 GEMM6 melanoma cells or 2*10^6 LCC cells were implanted subcutaneously into C57BL/6J mice (randomized, both males and females, 000664 The Jackson laboratory). When indicated, mice received intraperitoneal injections 7 days after implantation with 100 μl of 5 mg/kg cisplatin (Tocris), 100 μl of 10 mg/kg BVT948 (Tocris) or 100 μl of 30 mg/kg of vemurafenib. 5 mice were used per experimental group and tumors were harvested when they reached 1.5 cm in any direction.
(§2) Immunohistochemistry analysis. Immunohistochemistry assay was carried out in formalin-fixed, paraffin-embedded 4 μm sections using primary antibodies against F4:80 (AbD Serotec), CD11b (Abcam), CD4 (eBioscience) or CD8a (eBioscience) on a Discovery Ultra Automated IHC staining system (Ventana). Sections were then imaged using a ScanScope XT microscope (Aperio) and quantified using Aperio software.

[4] = system: GEMM6 tumors; assay: GEMM6 melanoma tumor model; format: in vivo
Protocol: as §1, with “5 mice were used per experimental group and tumors were harvested when they reached 1.5 cm in any direction.” left out
as §2

[5] = system: LLC tumors; assay: Subcutaneous LLC tumor model; format: in vivo, mouse
Protocol: as §1, §2

[6] = co-immunoprecipitation of Stat1, 24 hours
[7] = BVT948 10 mg/kg or Cisplatin 5 mg/kg intraperitoneal, treatment from 50 mm^3
[8] = BVT948 in combination with Cisplatin
[9] = BVT948 monotherapy, treatment from palpable tumors (50 mm^3), 8 mice per arm

BVT948
association of PTP1b with Mer and Stat1 ([1]; co-immunoprecipitation of PTP1b, in the presence of B16F10 cells): reduced the association | Stat1 S727 phosphorylation [1, 6]: restoration of Stat1 S727 phosphorylation | ternary complex formation [1, 6]: reduced ternary complex formation | DAMP mediated macrophage activation (pro-inflammatory gene expression) ([2]; B16F10 nutrient deprivation conditioned medium): able to restore DAMP mediated macrophage activation | pro-inflammatory gene expression ([2]; GEMM6 nutrient deprivation conditioned medium): rescued pro-inflammatory gene expression | B16F10 tumor growth, monotherapy vs vehicle [3, 7]: did not significantly reduce | decrease in B16F10 tumor growth, combination [3, 8]: roughly 50% | reduction in tumor viability (H&E staining) ([3]; BVT948 monotherapy, B16F10 tumors): 20% | intra-tumoral immune infiltrate ([3]; BVT948 monotherapy, end-stage B16F10): some increases in macrophage and T cells | decrease in GEMM6 tumor growth, combination ([4]; BVT948 in combination with Vemurafenib): roughly 50% | tumor viability (H&E staining) ([4]; BVT948 monotherapy, GEMM6 tumors): not significantly changed | mice completely regressing and immune to rechallenge 1 month later [4, 9]: 3/8 | mice showing reductions in tumor growth [4, 9]: 6/8 | mice that died (most likely drug toxicity or autoimmune response) [4, 9]: 2/8 | GEMM6 tumor growth, monotherapy vs vehicle ([4]; larger tumors (200 mm^3), BVT948 10 mg/kg or Vemurafenib 30 mg/kg intraperitoneal): did not significantly reduce | LLC tumor growth reduction, monotherapy [5, 7]: 30% | decrease in LLC tumor growth, combination [5, 8]: roughly 50% | tumor viability (H&E staining) ([5]; BVT948 monotherapy, LLC tumors): not significantly changed
